Results: patent US20080031894A1, “Beta acid based protein kinase modulation cancer treatment” (Metaproteomics, LLC, priority 2006, published 2008)
Marks after values point to notes of the source that are not given here.

Experiments:
[1] = system: adiponectin secretion; test: Adiponectin secretion in LPS/3T3-L1 adipocytes; type: cell-based, murine; conditions: LPS 100 ng/ml; for adiponectin secretion, in words: any of the doses tested
[2] = system: adiponectin secretion; test: Adiponectin secretion from insulin-resistant 3T3-L1 adipocytes; type: cell-based, murine
Method: 3T3-L1 cells were seeded at an initial density of 1×10^4 cells/cm^2 in 96-well plates. For two days, the cells were allowed grow to reach confluence. Following confluence, the cells were forced to differentiate into adipocytes by the addition of differentiation medium; this medium consisted of (1) 10% FBS/DMEM (high glucose); (2) 0.5 mM methylisobutylxanthine; (3) 0.5 μM dexamethasone and (4) 10 μg/ml insulin (MDI medium). From Day 3 through Day 5, the medium was changed to post-differentiation medium consisting of 10 μg/ml insulin in 10% FBS/DMEM.
Briefly, on Day 6, cells were maintained in serum-free media containing 0.5% bovine serum albumin (BSA) for three hours and then treated with 1 μg insulin/ml plus solvent or insulin plus test material. […] Twenty-four hours later, the supernatant medium was sampled for adiponectin determination.
(§1) Adiponectin Assay—The adiponectin secreted into the medium was quantified using the Mouse Adiponectin Quantikine® Immunoassay kit with no modifications (R&D Systems, Minneapolis, Minn.).
Statistical Calculations and Interpretation—All assays were preformed in duplicate. […] Differences between the doses were determined using the student's t-test without correction for multiple comparisons; the nominal five percent probability of a type I error was selected. […]

[3] = system: adiponectin secretion; test: Adiponectin secretion from TNFα-treated 3T3-L1 adipocytes; type: cell-based, murine; conditions: for maximum increase of adiponectin secretion from the TNFα control: 10 ng/ml TNFα
Method: 3T3-L1 cells were seeded at an initial density of 1×10^4 cells/cm^2 in 96-well plates. For two days, the cells were allowed grow to reach confluence. Following confluence, the cells were forced to differentiate into adipocytes by the addition of differentiation medium; this medium consisted of (1) 10% FBS/DMEM (high glucose); (2) 0.5 mM methylisobutylxanthine; (3) 0.5 μM dexamethasone and (4) 10 μg/ml insulin (MDI medium). From Day 3 through Day 5, the medium was changed to post-differentiation medium consisting of 10% FBS in DMEM. […] On Day 6, the supernatant medium was sampled for adiponectin determination.
as §1
Statistical Calculations and Interpretation—All assays were preformed in duplicate. […] Differences among the doses and test agents were determined using the Student's t-test without correction for multiple comparisons; the nominal five percent probability of a type I error was selected.

[4] = Non-fasting serum glucose and insulin in db/db diabetic mice, three days; type: in vivo, mouse; conditions: three consecutive days by gavage
Method: The Model—Male, C57BLKS/J m^+/m^+ Lepr^db (db/db) mice were used to assess the potential of the test materials to reduce fasting serum glucose or insulin concentrations. This strain of mice is resistant to leptin by virtue of the absence of a functioning leptin receptor.
Testing Procedure—Test substances were administered daily by gavage in 0.2% Tween-80. Serum was collected from the retroorbital sinus before the initial dose and ninety minutes after the third and final dose. Non-fasting serum glucose was determined enzymatically by the mutarotase/glucose oxidase method and serum insulin was determined by a mouse specific ELISA.

[5] = system: IL-6; test: Serum IL-6 in collagen induced arthritis murine model; type: in vivo, mouse; conditions: 10 mg/kg
[6] = system: human PI3K-β, PI3K-γ, and PI3K-δ; test: Effect of hops components on PI3K activity (FIG. 3); type: biochemical; conditions: 50 μg/ml
Method: Additionally examined was an Acacia nilotica heartwood extract. All compounds were tested at 50 μg/ml. The results are presented graphically as FIG. 3.

[7] = system: PGE2 biosynthesis; test: PGE2 biosynthesis in A549 pulmonary epithelial cells stimulated by mite dust allergen; type: cell-based, human; conditions: 10 μg/ml, added 60 minutes prior to mite dust allergen
Excerpt: Mite dust allergen isolation—Dermatophagoides farinae is the American house dust mite. D. farinae were raised on a 1:1 ratio of Purina Laboratory Chow (Ralston Purina, Co, St. Louis, Mo.) and Fleischmann's granulated dry yeast (Standard Brands, Inc. New York, N.Y.) at room temperature and 75% humidity. Live mites were aspirated from the culture container as they migrated from the medium, killed by freezing, desiccated and stored at 0% humidity. The allergenic component of the mite dust was extracted with water at ambient temperature. Five-hundred mg of mite powder were added to 5 ml of water (1:10 w/v) in a 15 ml conical centrifuge tube (VWR, Rochester, N.Y.), shaken for one minute and allowed to stand overnight at ambient temperature. The next day, the aqueous phase was filtered using a 0.2 μm disposable syringe filter (Nalgene, Rochester, N.Y.). The filtrate was termed mite dust allergen and used to test for induction of PGE2 biosynthesis in A549 pulmonary epithelial cells.
Cell culture and treatment—The human airway epithelial cell line, A549 (American Type Culture Collection, Bethesda, Md.) was cultured and treated as previously described in Example 6. Mite allergen was added to the culture medium to achieve a final concentration of 1000 ng/ml. Eighteen hours later, the media were sampled for PGE2 determination.

Compound: CC(=O)Oc1ccccc1C(=O)O [Aspirin]
- adiponectin secretion, in words [1]: failed to induce adiponectin secretion

Compound: CC(C)CCC1=C(O)C(C(=O)C(C)C)=C(O)C(CCC(C)C)(CCC(C)C)C1=O [Hexahydro-colupulone (HHCL)]
- Adiponectin/IL-6 ([2]; 50.0 μg/ml, ratio of indexes (Table 21)): 0.60#

Compound: COc1ccc2c(c1)c(CC(=O)O)c(C)n2C(=O)c1ccc(Cl)cc1 [Indomethacin]
- Maximum adiponectin stimulation ([1]; […]): 9%

Compound: CCc1ccc(CCOc2ccc(CC3SC(=O)NC3=O)cc2)nc1 (stereo not drawn) [Pioglitazone]
- Maximum adiponectin stimulation ([1]; […]): 12%
- Adiponectin Index (relative maximum) ([3]; 10 ng TNFα/ml, [Adiponectin]Test/[Adiponectin]TNFα control): 1.47
- maximum increase of adiponectin secretion from the TNFα control [3]: 80%
- Adiponectin Index Observed ([3]; 1.0 μg/ml, indexed to TNFα control (Table 26)): 1.80

Compound: Cc1c(C)c2c(c(C)c1O)CCC(C)(COc1ccc(CC3SC(=O)NC3=O)cc1)O2 (stereo not drawn) [Troglitazone]
- Maximum adiponectin stimulation ([1]; 0.625 μg/ml): 15%
- maximum increase of adiponectin secretion from the TNFα control [3]: 51%

Compound: CC(C)CCC1=C(O)C(C(=O)C(C)C)=C(O)C(CCC(C)C)(CCC(C)C)C1=O [hexahydrocolupulone]
- concentration required for half maximal adiponectin secretion ([2]; Hofstee plot slope): 3.2 µg/mL

Compound: CC(C)Cc1ccc(C(C)C(=O)O)cc1 (stereo not drawn) [ibuprofen]
- Maximum adiponectin stimulation ([1]; 0.625 μg/ml): 22%

Compound: CN(C)C(=N)N=C(N)N [metformin]
- serum glucose, in words [4]: decreased

Compound: C[C@]12C=CC(=O)C=C1CC[C@@H]1[C@@H]2[C@@H](O)C[C@@]2(C)[C@H]1CC[C@]2(O)C(=O)CO [prednisolone]
- serum IL-6 levels, in words [5]: reached a statistical significance

Compound: O=C(O)c1ccccc1O [salicylic acid]
- adiponectin secretion, in words [1]: failed to induce adiponectin secretion

Compound: COc1cc(O)c(CC=C(C)C)c(O)c1C(=O)/C=C/c1ccc(O)cc1 [xanthohumol]
- serum glucose, in words [4]: reduction in serum glucose
- serum insulin, in words [4]: no effect on insulin
- PI3K isoform effect, in words [6]: more inhibitory to PI3K-γ than to PI3K-β or PI3K-δ

Compound: Beta acids
- Percent PGE2 Inhibition [7]: 83%
